Marks after values point to notes of the source that are not given here.
How the values were obtained:
GLP-1R = target: T1, GLP-1R (Homo sapiens, UniProt P43220); experiment: In vitro cell activity, cAMP production in HEK293 cells expressing GLP-1R; format: cell-based
T1 construct: expressed in transfected cells; host or cells: HEK293 (HEK293-GLP-1R)
Outline: (§1)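 cAMP output read as 665/620 nm HTRF ratio after adding cAMP-d2 plus anti-cAMP cryptate and incubating 1 h at room temperature in the dark or overnight at 4 °C. Cells: HEK293 expressing human GLP-1R or GCGR, plated from a 4×10^5 cells/mL suspension. Four-parameter fit gives EC50.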

GCGR = target: T2, GCGR (Homo sapiens, UniProt P47871); experiment: In vitro cell activity, cAMP production in HEK293 cells expressing GCGR; format: cell-based
T2 construct: expressed in transfected cells; host or cells: HEK293 (HEK293-GCGR)
Outline: as §1

GIPR = target: T3, GIPR (Homo sapiens, UniProt P48546); experiment: In vitro cell activity, cAMP production in HEK293 cells expressing GIPR; format: cell-based
T3 construct: expressed in transfected cells; host or cells: HEK293 (HEK293-GIPR)
T3 sequence (P48546 22-466): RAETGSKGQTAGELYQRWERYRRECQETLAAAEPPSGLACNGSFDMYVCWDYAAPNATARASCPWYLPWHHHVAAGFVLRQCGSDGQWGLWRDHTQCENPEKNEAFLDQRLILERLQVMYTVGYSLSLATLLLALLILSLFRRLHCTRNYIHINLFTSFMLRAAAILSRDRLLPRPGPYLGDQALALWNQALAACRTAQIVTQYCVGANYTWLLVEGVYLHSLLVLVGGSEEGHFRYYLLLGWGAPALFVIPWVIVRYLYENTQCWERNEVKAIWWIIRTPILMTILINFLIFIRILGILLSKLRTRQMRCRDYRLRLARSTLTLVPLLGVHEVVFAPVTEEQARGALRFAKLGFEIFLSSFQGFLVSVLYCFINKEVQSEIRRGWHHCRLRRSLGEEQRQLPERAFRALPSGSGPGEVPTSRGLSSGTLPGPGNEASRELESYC
Outline: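 HEK293 cells expressing human GIPR, thawed and diluted to 4×10^5 cells/mL, are stimulated with test compound. cAMP is measured by HTRF competition between cAMP-d2 and anti-cAMP cryptate. EC50 comes from a four-parameter nonlinear fit of signal ratio against concentration.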

[1] = Pharmacokinetic study in rats, single subcutaneous injection; details: male, Sprague Dawley, in vivo, sc, rat, 50 nmol/kg single subcutaneous injection, plasma
Method: The pharmacokinetic study of each polypeptide compound prepared in Example 1 was conducted using male Sprague Dawley rats. There were 3 male rats in each group. […] The dose was 50 nmol/kg, and a single subcutaneous injection was given (see Table 3 for specific peptide compounds). After administration, plasma was collected on the specified days and time points, and the concentration of each peptide compound in the plasma was detected by LC-MS/MS method. The pharmacokinetic parameters were obtained based on the concentration data, which were used to describe the pharmacokinetic properties of the peptide in rats after subcutaneous injection. Table 3: Summary of pharmacokinetic parameters of some triple-target peptides in rats

[2] = Glucose tolerance assessment in normal C57BL/6 mice (Example 5); format: in vivo; details: 3 nmol/kg s.c. single dose, 24 h after administration
Outline: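 Normal C57BL/6 mice given a single dose, fasted 12 h starting 12 h post-dose, then challenged with 2 g/kg glucose i.p. Tail-vein glucose measured at baseline and 15, 30, 60, 90 min. AUC0~90min calculated from the glucose–time curve per dose group.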

T1 sequence (P43220 24-463, species assumed): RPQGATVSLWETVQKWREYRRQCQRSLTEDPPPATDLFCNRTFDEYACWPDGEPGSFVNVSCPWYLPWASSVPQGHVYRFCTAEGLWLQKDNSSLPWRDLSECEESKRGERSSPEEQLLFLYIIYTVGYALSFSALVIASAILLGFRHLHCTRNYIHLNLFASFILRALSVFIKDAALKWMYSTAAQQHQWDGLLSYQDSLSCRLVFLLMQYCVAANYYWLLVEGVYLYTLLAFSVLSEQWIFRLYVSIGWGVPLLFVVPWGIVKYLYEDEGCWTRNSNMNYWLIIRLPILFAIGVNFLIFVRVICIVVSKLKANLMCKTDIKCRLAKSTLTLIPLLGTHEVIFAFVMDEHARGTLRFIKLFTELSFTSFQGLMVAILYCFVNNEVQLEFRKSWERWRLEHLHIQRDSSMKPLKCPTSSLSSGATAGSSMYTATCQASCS
T2 sequence (P47871 26-477, species assumed): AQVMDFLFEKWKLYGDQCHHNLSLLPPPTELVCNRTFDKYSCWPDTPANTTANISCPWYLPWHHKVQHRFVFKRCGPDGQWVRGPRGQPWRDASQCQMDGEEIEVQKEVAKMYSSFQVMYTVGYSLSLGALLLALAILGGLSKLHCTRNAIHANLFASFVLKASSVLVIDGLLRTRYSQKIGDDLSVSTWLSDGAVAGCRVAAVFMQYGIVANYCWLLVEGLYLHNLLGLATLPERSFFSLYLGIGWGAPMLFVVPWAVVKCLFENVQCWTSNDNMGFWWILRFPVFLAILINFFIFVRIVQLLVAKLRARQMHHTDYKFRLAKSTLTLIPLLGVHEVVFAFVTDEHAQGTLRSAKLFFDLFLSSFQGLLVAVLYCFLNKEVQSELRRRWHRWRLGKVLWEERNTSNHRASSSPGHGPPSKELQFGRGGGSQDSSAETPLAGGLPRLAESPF

Compound CC[C@H](C)[C@H](NC(=O)[C@H](Cc1ccccc1)NC(=O)[C@H](C)NC(=O)[C@H](CCCNC(=N)N)NC(=O)[C@H](CCC(N)=O)NC(=O)[C@H](CCCNC(=N)N)NC(=O)[C@H](CCCCNC(=O)COCCOCCNC(=O)CC[C@H](NC(=O)CCCCCCCCCCCCCCCCC(=O)O)C(=O)O)NC(=O)[C@H](CCC(=O)O)NC(=O)[C@H](CC(=O)O)NC(=O)[C@H](CC(C)C)NC(=O)[C@H](CC(C)C)NC(=O)[C@@H](NC(=O)[C@H](CO)NC(=O)[C@H](Cc1ccc(O)cc1)NC(=O)[C@H](CC(=O)O)NC(=O)[C@H](CO)NC(=O)[C@@H](NC(=O)[C@](C)(Cc1ccccc1F)NC(=O)[C@@H](NC(=O)CNC(=O)[C@H](Cc1c[nH]cn1)NC(=O)C(C)(C)NC(=O)[C@@H](N)Cc1ccc(O)cc1)[C@@H](C)O)[C@@H](C)O)[C@@H](C)CC)C(=O)N[C@@H](CCC(=O)O)C(=O)N[C@@H](Cc1ccc(O)cc1)C(=O)N[C@@H](CC(C)C)C(=O)N[C@@H](CC(C)C)C(=O)N[C@@H](C)C(=O)NCC(=O)NCC(=O)N1CCC[C@H]1C(=O)N[C@@H](CO)C(=O)N[C@@H](CO)C(=O)NCC(=O)N[C@@H](C)C(=O)N1CCC[C@H]1C(=O)N1CCC[C@H]1C(=O)N1CCC[C@H]1C(=O)N[C@@H](CO)C(=O)O [HEC-PT119] has an EC50 (GLP-1R) of 0.189 nM, an EC50 (GCGR) of 0.266 nM and an EC50 (GIPR) of 0.0484 nM. For the same compound, the AUC(0-inf) [1] was 43800 ± 10700 ng·h/mL, the AUC(0-t) [1] was 43500 ± 10700 ng·h/mL and the Cmax [1] was 974 ± 248 ng/mL. For the same compound, the half-life ([1]; read-out: T1/2 (converted)) was 16 ± 1.6 h, the Tmax ([1]; read-out: Tmax) was 19 ± 9.2 h and the “Blood glucose level (mM) 15 min” value ([2]; 15 min after 2 g/kg glucose i.p.) was 14.0 ± 2.2 mM. For the same compound, the “Blood glucose level (mM) 30 min” value ([2]; 30 min after 2 g/kg glucose i.p.) was 10.8 ± 1.8 mM, the “Blood glucose level (mM) 60 min” value ([2]; 60 min after 2 g/kg glucose i.p.) was 7.8 ± 0.7 mM and the “Blood glucose level (mM) 90 min” value ([2]; 90 min after 2 g/kg glucose i.p.) was 6.7 ± 0.7 mM. For the same compound, the “Blood glucose level (mM) 0 min” value ([2]; basal before 2 g/kg glucose i.p.) was 4.1 ± 0.4 mM and the AUC0-90 min ([2]; blood glucose AUC, 2 g/kg glucose i.p.) was 817.4±95.1^a.
